Common to all, as to assay: Kinase profiling
Format in all cases: biochemical

The target of one assay is T1, PRK2 (Homo sapiens, UniProt Q16513).
T1 construct: purchased ProQinase (Freiburg, Germany)
How it is done: (§1) The analysis was performed by ProQinase (Freiburg, Germany).

The target of a further assay is T2, DMPK (Homo sapiens, UniProt Q09013).
T2 construct: purchased ProQinase (Freiburg, Germany)
T2 sequence (Q09013 1-629): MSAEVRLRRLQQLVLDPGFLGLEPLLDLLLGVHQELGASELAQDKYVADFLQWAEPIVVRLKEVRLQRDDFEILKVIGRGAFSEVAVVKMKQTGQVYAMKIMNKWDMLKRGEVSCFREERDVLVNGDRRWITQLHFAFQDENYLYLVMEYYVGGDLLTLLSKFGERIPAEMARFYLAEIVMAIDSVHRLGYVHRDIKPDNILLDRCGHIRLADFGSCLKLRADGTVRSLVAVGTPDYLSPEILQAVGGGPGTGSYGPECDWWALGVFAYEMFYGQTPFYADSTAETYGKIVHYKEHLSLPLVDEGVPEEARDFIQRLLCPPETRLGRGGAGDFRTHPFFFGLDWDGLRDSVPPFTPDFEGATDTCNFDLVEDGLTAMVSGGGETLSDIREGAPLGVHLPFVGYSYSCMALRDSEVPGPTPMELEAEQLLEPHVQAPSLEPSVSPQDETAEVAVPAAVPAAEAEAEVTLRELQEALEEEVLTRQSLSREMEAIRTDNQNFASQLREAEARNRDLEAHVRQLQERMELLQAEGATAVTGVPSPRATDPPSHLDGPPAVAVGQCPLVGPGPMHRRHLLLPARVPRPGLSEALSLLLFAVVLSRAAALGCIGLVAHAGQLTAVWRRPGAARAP
How it is done: as §1

The next assay concerns the target T3, RIPK4 (Homo sapiens, UniProt P57078).
T3 construct: purchased ProQinase (Freiburg, Germany)
T3 sequence (P57078 1-832): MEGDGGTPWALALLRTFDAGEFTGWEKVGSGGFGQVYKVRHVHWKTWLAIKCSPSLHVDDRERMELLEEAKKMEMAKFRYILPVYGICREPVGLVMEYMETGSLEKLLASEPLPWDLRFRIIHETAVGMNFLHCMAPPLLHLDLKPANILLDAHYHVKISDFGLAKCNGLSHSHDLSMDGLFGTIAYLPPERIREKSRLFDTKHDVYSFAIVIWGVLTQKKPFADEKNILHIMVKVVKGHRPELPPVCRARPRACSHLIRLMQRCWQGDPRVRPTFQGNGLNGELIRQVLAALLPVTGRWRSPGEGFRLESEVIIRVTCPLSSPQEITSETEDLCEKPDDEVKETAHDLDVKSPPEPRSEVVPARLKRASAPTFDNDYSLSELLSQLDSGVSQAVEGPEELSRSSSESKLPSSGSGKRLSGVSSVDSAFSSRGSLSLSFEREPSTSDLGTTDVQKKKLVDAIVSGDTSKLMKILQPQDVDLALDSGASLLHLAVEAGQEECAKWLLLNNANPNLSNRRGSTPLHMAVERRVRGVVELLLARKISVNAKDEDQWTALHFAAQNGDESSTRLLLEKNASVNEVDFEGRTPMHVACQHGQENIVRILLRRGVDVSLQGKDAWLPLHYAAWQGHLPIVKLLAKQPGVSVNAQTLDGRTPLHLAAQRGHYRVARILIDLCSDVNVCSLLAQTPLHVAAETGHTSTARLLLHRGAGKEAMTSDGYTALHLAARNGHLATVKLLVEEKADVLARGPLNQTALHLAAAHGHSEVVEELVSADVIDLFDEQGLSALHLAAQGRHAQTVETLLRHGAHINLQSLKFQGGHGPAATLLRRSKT
How it is done: as §1

In the next assay the target is T4, ULK2 (Homo sapiens, UniProt Q8IYT8).
T4 construct: purchased ProQinase (Freiburg, Germany)
T4 sequence (Q8IYT8 1-1036): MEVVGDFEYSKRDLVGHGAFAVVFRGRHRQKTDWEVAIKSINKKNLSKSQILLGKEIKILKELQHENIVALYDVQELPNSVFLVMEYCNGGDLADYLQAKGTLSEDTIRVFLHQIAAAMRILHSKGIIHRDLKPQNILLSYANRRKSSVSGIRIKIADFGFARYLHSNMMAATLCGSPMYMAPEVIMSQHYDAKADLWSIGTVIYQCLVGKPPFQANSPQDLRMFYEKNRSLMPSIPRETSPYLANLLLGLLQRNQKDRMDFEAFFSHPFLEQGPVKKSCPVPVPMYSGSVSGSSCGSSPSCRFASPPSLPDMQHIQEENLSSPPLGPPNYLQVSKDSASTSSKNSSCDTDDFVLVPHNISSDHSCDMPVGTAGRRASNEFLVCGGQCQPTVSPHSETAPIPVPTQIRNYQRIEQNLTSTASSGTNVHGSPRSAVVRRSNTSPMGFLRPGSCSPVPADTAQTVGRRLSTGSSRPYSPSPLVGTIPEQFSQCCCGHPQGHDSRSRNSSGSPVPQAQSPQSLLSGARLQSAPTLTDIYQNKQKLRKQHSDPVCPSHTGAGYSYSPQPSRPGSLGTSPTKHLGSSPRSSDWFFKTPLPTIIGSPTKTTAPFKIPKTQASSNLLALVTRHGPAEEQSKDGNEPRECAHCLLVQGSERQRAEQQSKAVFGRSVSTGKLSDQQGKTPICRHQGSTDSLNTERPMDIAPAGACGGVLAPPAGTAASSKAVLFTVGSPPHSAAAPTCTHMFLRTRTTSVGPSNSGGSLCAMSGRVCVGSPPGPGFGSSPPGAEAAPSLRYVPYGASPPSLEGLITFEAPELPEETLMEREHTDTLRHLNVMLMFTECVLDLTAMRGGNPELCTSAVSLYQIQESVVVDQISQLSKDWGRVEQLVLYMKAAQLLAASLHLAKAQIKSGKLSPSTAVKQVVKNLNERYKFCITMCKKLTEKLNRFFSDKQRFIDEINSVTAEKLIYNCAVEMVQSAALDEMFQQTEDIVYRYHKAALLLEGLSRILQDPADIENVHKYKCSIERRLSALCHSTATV
How it is done:
as §1

A further assay deals with T5, CDK13/CycK (Homo sapiens, UniProt Q14004).
T5 construct: purchased ProQinase (Freiburg, Germany)
T5 sequence (Q14004 whole entry): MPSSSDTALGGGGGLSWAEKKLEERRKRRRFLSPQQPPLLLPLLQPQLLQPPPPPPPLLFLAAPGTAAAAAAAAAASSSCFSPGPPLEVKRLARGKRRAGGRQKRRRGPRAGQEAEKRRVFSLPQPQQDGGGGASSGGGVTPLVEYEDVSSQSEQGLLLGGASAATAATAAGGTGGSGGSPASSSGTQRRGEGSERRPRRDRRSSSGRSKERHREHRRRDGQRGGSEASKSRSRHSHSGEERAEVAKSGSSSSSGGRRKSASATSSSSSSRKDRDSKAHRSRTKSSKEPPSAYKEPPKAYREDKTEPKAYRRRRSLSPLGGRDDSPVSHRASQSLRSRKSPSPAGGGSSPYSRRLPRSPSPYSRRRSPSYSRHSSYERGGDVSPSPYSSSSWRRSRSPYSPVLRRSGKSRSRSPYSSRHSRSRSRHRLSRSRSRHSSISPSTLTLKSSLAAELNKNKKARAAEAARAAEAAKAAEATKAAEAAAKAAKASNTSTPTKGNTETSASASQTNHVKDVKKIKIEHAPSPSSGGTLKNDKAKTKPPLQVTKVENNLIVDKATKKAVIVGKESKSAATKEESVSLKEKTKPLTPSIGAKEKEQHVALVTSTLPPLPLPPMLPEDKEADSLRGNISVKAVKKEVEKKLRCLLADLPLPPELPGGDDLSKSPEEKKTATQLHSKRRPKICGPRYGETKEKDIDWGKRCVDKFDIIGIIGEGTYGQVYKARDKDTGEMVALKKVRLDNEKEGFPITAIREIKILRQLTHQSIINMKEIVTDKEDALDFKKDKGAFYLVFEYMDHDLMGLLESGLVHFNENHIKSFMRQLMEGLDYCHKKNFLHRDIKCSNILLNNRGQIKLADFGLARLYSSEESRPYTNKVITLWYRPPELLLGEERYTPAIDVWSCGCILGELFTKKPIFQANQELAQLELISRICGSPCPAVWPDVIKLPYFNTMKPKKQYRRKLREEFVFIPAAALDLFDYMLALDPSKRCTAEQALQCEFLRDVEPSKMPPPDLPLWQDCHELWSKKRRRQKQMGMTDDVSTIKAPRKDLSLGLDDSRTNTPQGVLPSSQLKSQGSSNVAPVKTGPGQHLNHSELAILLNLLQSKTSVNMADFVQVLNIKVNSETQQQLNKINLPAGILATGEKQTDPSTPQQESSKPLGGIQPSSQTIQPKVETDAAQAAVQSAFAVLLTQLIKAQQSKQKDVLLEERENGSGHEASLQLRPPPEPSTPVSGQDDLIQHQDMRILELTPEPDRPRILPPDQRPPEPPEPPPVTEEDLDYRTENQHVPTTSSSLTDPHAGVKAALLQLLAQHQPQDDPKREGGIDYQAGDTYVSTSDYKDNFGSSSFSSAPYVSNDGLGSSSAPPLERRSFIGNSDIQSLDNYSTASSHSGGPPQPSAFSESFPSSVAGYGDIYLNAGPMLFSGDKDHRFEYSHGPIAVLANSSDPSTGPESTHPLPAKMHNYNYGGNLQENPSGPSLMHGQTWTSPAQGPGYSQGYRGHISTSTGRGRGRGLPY
T5 sequence (O75909 whole entry partner): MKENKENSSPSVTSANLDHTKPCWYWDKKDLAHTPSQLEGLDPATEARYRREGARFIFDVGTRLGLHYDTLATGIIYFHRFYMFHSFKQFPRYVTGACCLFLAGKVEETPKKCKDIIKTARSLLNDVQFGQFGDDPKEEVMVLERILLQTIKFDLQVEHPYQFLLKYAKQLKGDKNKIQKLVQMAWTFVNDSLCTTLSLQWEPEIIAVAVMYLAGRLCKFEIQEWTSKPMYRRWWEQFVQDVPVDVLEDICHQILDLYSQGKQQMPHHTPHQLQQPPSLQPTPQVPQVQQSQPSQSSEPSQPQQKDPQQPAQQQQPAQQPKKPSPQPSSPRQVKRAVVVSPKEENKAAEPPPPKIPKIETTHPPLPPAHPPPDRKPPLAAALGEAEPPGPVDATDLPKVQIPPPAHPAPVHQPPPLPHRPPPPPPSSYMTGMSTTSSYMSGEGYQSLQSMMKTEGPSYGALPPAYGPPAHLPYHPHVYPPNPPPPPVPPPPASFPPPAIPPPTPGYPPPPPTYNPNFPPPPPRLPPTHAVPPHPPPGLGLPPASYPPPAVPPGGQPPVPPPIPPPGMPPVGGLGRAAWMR
How it is done: as §1

The next assay has as its target T6, TTBK1 (Homo sapiens, UniProt Q5TCY1).
T6 construct: purchased ProQinase (Freiburg, Germany)
How it is done: as §1

In a further assay the target is T7, JAK2 (Homo sapiens, UniProt O60674).
T7 construct: purchased ProQinase (Freiburg, Germany)
T7 sequence (O60674 whole entry): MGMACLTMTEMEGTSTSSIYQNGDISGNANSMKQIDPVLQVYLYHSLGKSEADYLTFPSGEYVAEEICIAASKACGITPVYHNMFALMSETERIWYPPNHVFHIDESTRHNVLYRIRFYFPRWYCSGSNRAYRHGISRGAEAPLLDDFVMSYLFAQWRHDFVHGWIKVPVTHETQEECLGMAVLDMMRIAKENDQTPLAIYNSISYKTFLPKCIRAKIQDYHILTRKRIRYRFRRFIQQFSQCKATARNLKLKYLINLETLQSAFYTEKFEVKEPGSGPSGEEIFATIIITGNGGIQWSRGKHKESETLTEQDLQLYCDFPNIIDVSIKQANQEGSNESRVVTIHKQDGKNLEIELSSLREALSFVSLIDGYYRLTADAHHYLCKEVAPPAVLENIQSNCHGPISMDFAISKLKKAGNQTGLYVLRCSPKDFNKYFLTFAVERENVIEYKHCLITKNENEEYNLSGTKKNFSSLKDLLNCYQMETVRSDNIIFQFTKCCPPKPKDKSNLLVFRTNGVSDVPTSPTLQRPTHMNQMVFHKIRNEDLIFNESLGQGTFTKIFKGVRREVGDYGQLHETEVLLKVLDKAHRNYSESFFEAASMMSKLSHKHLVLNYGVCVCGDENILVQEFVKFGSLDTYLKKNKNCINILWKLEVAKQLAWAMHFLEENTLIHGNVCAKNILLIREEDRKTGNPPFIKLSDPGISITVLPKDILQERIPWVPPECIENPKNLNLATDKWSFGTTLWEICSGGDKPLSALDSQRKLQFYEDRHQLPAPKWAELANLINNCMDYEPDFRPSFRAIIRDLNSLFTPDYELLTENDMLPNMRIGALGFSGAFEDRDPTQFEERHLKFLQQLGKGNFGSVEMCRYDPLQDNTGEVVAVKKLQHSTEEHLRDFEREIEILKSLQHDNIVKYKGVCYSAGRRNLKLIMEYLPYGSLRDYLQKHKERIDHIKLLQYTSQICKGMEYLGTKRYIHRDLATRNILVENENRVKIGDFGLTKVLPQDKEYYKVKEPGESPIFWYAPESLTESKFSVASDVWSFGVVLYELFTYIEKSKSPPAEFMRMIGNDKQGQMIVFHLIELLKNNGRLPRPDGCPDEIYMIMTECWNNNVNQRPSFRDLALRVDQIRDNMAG
How it is done: as §1

The target in a further assay is T8, SNK (Homo sapiens, UniProt Q9NYY3).
T8 construct: purchased ProQinase (Freiburg, Germany)
How it is done: as §1

A further assay concerns the target T9, AKT2 (Homo sapiens, UniProt P31751).
T9 construct: purchased ProQinase (Freiburg, Germany)
How it is done: as §1

T9 sequence (P31751 whole entry): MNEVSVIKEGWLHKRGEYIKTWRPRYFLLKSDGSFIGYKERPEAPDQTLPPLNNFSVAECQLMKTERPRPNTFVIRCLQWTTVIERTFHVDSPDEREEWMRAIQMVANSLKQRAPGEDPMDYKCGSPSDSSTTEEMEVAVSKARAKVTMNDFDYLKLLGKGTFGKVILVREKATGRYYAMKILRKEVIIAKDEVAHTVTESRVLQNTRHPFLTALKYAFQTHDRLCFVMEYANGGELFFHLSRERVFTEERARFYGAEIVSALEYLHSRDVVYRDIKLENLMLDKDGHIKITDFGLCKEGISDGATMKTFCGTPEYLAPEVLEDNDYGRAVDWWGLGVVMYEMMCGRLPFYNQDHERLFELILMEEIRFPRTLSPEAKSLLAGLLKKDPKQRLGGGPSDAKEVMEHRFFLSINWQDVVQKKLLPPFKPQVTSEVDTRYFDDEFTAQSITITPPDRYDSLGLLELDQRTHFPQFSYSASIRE
T1 sequence (Q16513 whole entry): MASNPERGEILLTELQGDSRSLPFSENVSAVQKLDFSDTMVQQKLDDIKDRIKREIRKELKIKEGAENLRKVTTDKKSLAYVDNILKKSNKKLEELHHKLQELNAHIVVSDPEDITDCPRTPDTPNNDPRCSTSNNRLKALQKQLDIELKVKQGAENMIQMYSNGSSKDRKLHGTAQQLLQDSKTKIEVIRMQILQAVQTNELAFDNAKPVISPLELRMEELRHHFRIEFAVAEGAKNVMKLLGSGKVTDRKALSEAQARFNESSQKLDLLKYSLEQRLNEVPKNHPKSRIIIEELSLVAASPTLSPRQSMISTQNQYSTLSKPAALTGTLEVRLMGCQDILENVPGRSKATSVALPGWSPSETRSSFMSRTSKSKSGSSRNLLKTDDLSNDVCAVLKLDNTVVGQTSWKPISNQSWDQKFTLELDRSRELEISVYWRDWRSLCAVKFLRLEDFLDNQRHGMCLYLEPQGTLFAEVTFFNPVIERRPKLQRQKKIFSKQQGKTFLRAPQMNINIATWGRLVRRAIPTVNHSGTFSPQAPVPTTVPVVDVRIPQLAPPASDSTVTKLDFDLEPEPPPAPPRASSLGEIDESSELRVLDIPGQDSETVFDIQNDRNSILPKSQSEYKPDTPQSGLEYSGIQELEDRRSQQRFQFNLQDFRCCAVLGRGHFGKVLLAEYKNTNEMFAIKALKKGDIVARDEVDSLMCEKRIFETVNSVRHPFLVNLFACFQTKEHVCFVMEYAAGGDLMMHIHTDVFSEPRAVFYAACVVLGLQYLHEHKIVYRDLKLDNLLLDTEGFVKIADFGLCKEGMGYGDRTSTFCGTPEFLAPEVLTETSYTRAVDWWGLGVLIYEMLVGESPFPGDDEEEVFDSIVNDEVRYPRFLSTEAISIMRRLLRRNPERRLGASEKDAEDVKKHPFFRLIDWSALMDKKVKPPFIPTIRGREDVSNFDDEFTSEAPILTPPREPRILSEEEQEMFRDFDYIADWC

As for `O=C(Cc1ccccc1)Nc1ccc(F)c(Nc2ccc3c(c2)CCCCC3=O)c1` [Compound 100], the Residual activity at PRK2 (1.0E-05 M) is 97 % of control; at PRK2 (1.0E-06 M), 94 % of control; at DMPK (1.0E-05 M), 100 % of control; at DMPK (1.0E-06 M), 101 % of control; at RIPK4 (1.0E-05 M) it was 98 % of control; on RIPK4 (1.0E-06 M) it was 103 % of control. In addition, the Residual activity on ULK2 (1.0E-05 M) was 103 % of control; at ULK2 (1.0E-06 M) it was 113 % of control; on CDK13/CycK (1.0E-05 M) it was 84 % of control; on CDK13/CycK (1.0E-06 M), 88 % of control; on TTBK1 (1.0E-05 M), 126 % of control; on TTBK1 (1.0E-06 M) it was 108 % of control. The Residual activity was 85 % of control on JAK2 (1.0E-05 M); 94 % of control at JAK2 (1.0E-06 M); 90 % of control at SNK (1.0E-05 M); 102 % of control at SNK (1.0E-06 M); 82 % of control at AKT2 (1.0E-05 M); 92 % of control on AKT2 (1.0E-06 M).
For `O=C(Nc1ccc(F)c(Nc2ccc3c(c2)CCCCC3=O)c1)c1cccc(F)c1` [Compound 109], the Residual activity is given as 96 % of control at PRK2 (1.0E-05 M); 90 % of control on PRK2 (1.0E-06 M); 94 % of control at DMPK (1.0E-05 M); 99 % of control on DMPK (1.0E-06 M); 100 % of control on RIPK4 (1.0E-05 M); 103 % of control at RIPK4 (1.0E-06 M). For the same compound, the Residual activity on ULK2 (1.0E-05 M) is reported as 113 % of control; on ULK2 (1.0E-06 M), 99 % of control; on CDK13/CycK (1.0E-05 M), 92 % of control; on CDK13/CycK (1.0E-06 M), 88 % of control; at TTBK1 (1.0E-05 M), 115 % of control; at TTBK1 (1.0E-06 M), 101 % of control. The Residual activity on JAK2 (1.0E-05 M) is 89 % of control; on JAK2 (1.0E-06 M), 90 % of control; on SNK (1.0E-05 M), 92 % of control; at SNK (1.0E-06 M), 94 % of control; at AKT2 (1.0E-05 M), 92 % of control; at AKT2 (1.0E-06 M) it was 92 % of control.

For the origin of these results see paper PMC9030254, “Target Hopping from Protein Kinases to PXR: Identification of Small-Molecule Protein Kinase Inhibitors as Selective Modulators of Pregnane X Receptor from TüKIC Library” (Cells, 2022).
